Here are results for six compounds from the NIST ThermoML archive (doi:10.1016/j.fluid.2011.09.014).

A short description of series [1]: xn = mol fraction of the nth substance listed. As to conditions: 293.15 K; 101 kPa; Liquid; Vibrating tube method; x2 = 0.75.
Series [2] in a line: refractive index (Na D-line) (dimensionless); xn = mol fraction of the nth substance listed. As to conditions: 294.15 K; 101 kPa; Liquid; Standard Abbe refractometry; x2 = 0.75.
The conditions of series [3]: Liquid; for mass density: 101.33 kPa, Vibrating tube method; for Normal boiling temperature: Closed cell (Static) method.
The nature of series [4]: refractive index (Na D-line) (dimensionless). The following applies: 101.33 kPa, Liquid, Standard Abbe refractometry.

Structures are written as SMILES. Numbers after ± are expanded uncertainties.

For the compound `CC(=O)CC(C)CC(C)C` (configuration not stated) [4,6-dimethyl-2-heptanone] + CC(C)CC(=O)CC(C)C, the mass density – broadly, the mass of a sample divided by its volume – in series [1] is 806.5 ± 0.5 kg/m3. In addition, the refractive index (as a rule, the speed of light in vacuum divided by its phase velocity in the sample) in series [2] turned out to be 1.4118 ± 0.0005.

Consider `CC(=O)O` [acetic acid], for which, in series [3] (298.15 K), the mass density was 1044.5 ± 0.6 kg/m3. In addition, the Normal boiling temperature in series [3] came out at 117.90 ± 0.2 °C. In addition, in series [4] (293.15 K), the refractive index was 1.3721 ± 0.0004.

Turning to `CC(C)OC(C)C` [diisopropyl ether], the mass density in series [3] (298.15 K) was found to be 719 ± 0.4 kg/m3. Also, the Normal boiling temperature in series [3] came out at 68.20 ± 0.2 °C. The refractive index in series [4] (298.15 K) is 1.3655 ± 0.0004.

As to `O=CO` [formic acid], in series [3] (293.15 K), the mass density was 1218.5 ± 1.4 kg/m3. Also, in series [3], the Normal boiling temperature was determined as 100.90 ± 0.2 °C. In addition, the refractive index in series [4] (293.15 K) came to 1.3711 ± 0.0006.

As for `CCCCCOC(C)=O` [pentyl ethanoate], the mass density in series [3] (293.15 K) was 875.9 ± 0.8 kg/m3. Moreover, the Normal boiling temperature in series [3] turned out to be 149.10 ± 0.2 °C. The refractive index in series [4] (293.15 K) worked out at 1.4025 ± 0.0006.

As to `CCC(=O)O` [propanoic acid], in series [3] (298.15 K), the mass density came out at 988.1 ± 0.5 kg/m3. For the same compound, the Normal boiling temperature in series [3] is 141.10 ± 0.2 °C. Moreover, the refractive index in series [4] (293.15 K) is listed as 1.3808 ± 0.0004.
